Test results taken from PubChem BioAssay AID743417 (Broad Institute, 2014).
Inconclusive results are not listed. Activity calls are given as the source filed them.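 Rule for the calls: active = compounds lowering the luciferase signal with a fitted half-maximal dose at most twice their top valid dose (cut at about 30 µM in these data); inconclusive = flat fits with moderate signal loss, or poor fits; inactive = the rest.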

System: Clone20 osteoblast Shn3 3'UTR firefly luciferase, 24 h
Test: Shn3 3'UTR reporter inhibitors, dose response, cell-based, Clone20 osteoblasts, luminescence, dry powder, set 2 (AID 743417)

SMILES	AC50
Cc1c(CCOC(=O)C23CC4(C)CC(C)(CC(C)(C4)C2)C3)sc[n+]1CC(=O)c1ccccc1	5.84 µM
O=C(CSc1nnc(-c2ccc(Cl)cc2Cl)n1C1CCCCC1)N1CCCC1	> 70 µM (inactive)
O=S(=O)(Nc1cc(Sc2ncn[nH]2)c(O)c2ccccc12)c1ccccc1	7.55 µM
O=C(c1nnsc1S(=O)c1ccc(Cl)cc1)N1CCOCC1 (centres undefined)	0.93 µM
CCN(CC)C(=S)Sc1c(-c2ccccc2)c2cc(Cl)ccc2[nH]c1=O	27 µM
O=[N+]([O-])c1cc(CN2CCN(c3ccccc3)CC2)c(O)c2ncccc12	1.99 µM
Cc1cccc(C(=O)Nc2ccc(C(=O)/C=C/c3cccnc3)cc2)c1	6.23 µM
CCCCCn1c(=O)c(C(=O)Nc2cnccn2)c(O)c2ccccc21	1.54 µM
Cc1ccc(S(=O)(=O)N2CCc3ccccc3CC2)cc1	3.29 µM
CCCCCc1nc2c(c(=O)c3ccccc3n2C)c(=O)n1C1CCCCCC1	8.21 µM
CCc1ccc(NC(=O)C2CCN(S(=O)(=O)c3ccc4c(c3)NC(=O)C(C)S4)CC2)cc1 (centres undefined)	7.08 µM
CC(C)(C)c1ccc(CN2C3=NCCCN3c3ccccc32)cc1	0.836 µM
COc1ccc(-c2csc(NC(=O)C3CCN(c4ncnc5sc(C)c(C)c45)CC3)n2)cc1OC	1.42 µM
Oc1cccc(C(Nc2nccs2)c2ccc3cccnc3c2O)c1 (centres undefined)	1.67 µM
CCCCn1c(CN(C)Cc2ccccc2)nc2c1c(=O)n(C)c(=O)n2C	2.38 µM
CCCCCCNC(=O)O[C@H]1Cn2c(=O)ccc(=O)n2[C@@H]2CN(S(=O)(=O)c3ccc(C)cc3)C[C@]12O	14.1 µM
CCOc1ccc(OCc2cccc(C(=O)O)c2)cc1	0.649 µM
CC1Cc2ccccc2N1Cc1cccc(S(=O)(=O)N(C)C)c1 (centres undefined)	33 µM
O=C(Sc1cccc2cccnc12)c1ccccc1Br	0.383 µM
CC1Sc2ccc(S(=O)(=O)N3CCC(C(=O)Nc4ccc(Cl)cc4)CC3)cc2NC1=O (centres undefined)	2.42 µM
Cc1ccccc1OCCn1cc(C(=S)N2CCCC2)c2ccccc21	24.3 µM
O=C(CN1C(=O)c2ccccc2S1(=O)=O)c1ccc(Cl)cc1Cl	3.53 µM
COc1ccccc1N1CCN(C(=O)C2CCCN(S(=O)(=O)c3ccc4c(c3)CCCN4C(C)=O)C2)CC1 (centres undefined)	2.68 µM
COc1ccccc1N1CCN(c2ncc(C(=O)N3CCN(c4cccc(Cl)c4)CC3)c3ccccc23)CC1	0.572 µM
COc1ccc(CNC(=O)C(C)n2ccc3cc(S(=O)(=O)N4CCCCCC4)ccc32)cc1 (centres undefined)	0.518 µM

SMILES	AC50
CCc1ccc(OCC(=O)NC(NC(=S)Nc2ccc(Cl)cc2)C(Cl)(Cl)Cl)cc1 (centres undefined)	4.96 µM
Cc1csc(=O)n1CC(=O)OCC(=O)c1c(N)n(C)c(=O)n(C)c1=O	27.1 µM
Cc1ccc(-c2cn3cc(C)ccc3n2)cc1	1.32 µM
COc1cccc(C(NC(C)=O)c2ccc3cccnc3c2O)c1 (centres undefined)	1.39 µM
O=C(CC(O)(C(F)(F)F)C(F)(F)F)Nc1ccc(Cl)c(Cl)c1	4.97 µM
COC(=O)C1=C(c2ccc(OCc3ccccc3)cc2)C[C@@H]2CC[C@H]1N2C(=O)NCc1ccc(C(C)(C)C)cc1	6.84 µM
CCCCC(=O)NC(c1ccc(C(C)C)cc1)c1ccc2cccnc2c1O (centres undefined)	0.57 µM
CCN1CCN(Cc2ccc(NC(=O)c3cc(NC(=O)c4cncc(-c5cccs5)c4)cc(OC)c3)cc2C(F)(F)F)CC1	9.68 µM
Cc1[nH]nc2ccc(-c3cncc(OC[C@@H](N)Cc4c[nH]c5ccccc45)c3)cc12	1.77 µM
CN1/C(=C/C(=O)c2nc(S(C)(=O)=O)ncc2Cl)C(C)(C)c2ccccc21	5.21 µM
Cc1cc(Nc2cccc([N+](=O)[O-])c2)n2c(nc3ccccc32)c1C#N	1.9 µM
CC(C)(C)c1ccc(NC(=O)COc2ccc(-n3ccnc3)cc2)cc1	5.27 µM
CN1/C(=C\C(=O)CN2C(=O)NC3(CCCCCC3)C2=O)C(C)(C)c2ccccc21	2.66 µM
CC1CC(C)(O)CC(C(O)CC2CC(=O)NC(=O)C2)C1=O (centres undefined)	0.339 µM
CCN(CC)CCn1c(=N)n(CC(O)COc2cccc(C)c2)c2ccccc21 (centres undefined)	4.39 µM
C=CCOC(=O)C1=C(C)N=C2SCCC(=O)N2C1c1cccs1 (centres undefined)	> 70 µM (inactive)
CCc1ccccc1NC(=O)COC(=O)c1c(C)nsc1NC	2.48 µM
Cc1ccc(CNc2nc(NCC3CC3)nc3ccsc23)c(C)c1	3.95 µM
CC(CCCC(C)(C)O)NC(=O)c1cc(COc2ccc3ncccc3c2)on1 (centres undefined)	1.75 µM
Cc1ccccc1OCC(O)Cn1c(=N)n(Cc2ccccc2)c2ccccc21 (centres undefined)	2.25 µM
Cc1ccc(-n2ncc3c(N4CCN(c5ccc(F)cc5)CC4)ncnc32)c(C)c1	3.24 µM
COC(=O)C1=C(c2ccc3ccccc3c2)C[C@@H]2CC[C@H]1N2C(=O)NCC1CC1	6.86 µM
CC1CN(S(=O)(=O)c2ccc(C(=O)Nc3nc(-c4cc5ccccc5o4)cs3)cc2)CC(C)O1 (centres undefined)	< 0.26 µM
COc1ccccc1OCC(O)Cn1c(=N)n(Cc2ccccc2)c2ccccc21 (centres undefined)	4.01 µM
Cn1cccc1C(=O)NC(=O)COC(=O)c1ccc(S(C)(=O)=O)c([N+](=O)[O-])c1	15.1 µM

SMILES	AC50
CCOc1cc(CNCCc2ccc(S(N)(=O)=O)cc2)ccc1OCc1ccc(Cl)cc1	3.87 µM
CCOc1ccc2nc(SC3CC(=O)N(c4ccc(C)cc4)C3=O)sc2c1 (centres undefined)	15.6 µM
CCC(O)C1CCN(C(=O)c2cc(COc3ccc4ncccc4c3)on2)CC1 (centres undefined)	0.505 µM
COc1ccc(C(CCNCc2ccc(OC(C)C)cc2)c2ccccc2OC)cc1 (centres undefined)	6.44 µM
Oc1cc(Nc2ccccc2)cc2cccnc12	1.79 µM
COc1c(CC=C(C)C)cc(C2CC(=O)c3c(O)cc(O)cc3O2)cc1CC=C(C)C (centres undefined)	5.42 µM
CCCCOCCCNc1ncnc2c1[nH]c1ccccc12	1.05 µM
O=C(Nc1ccc(-c2nc3ccccc3o2)cc1)c1ccc(N2CCOCC2)c([N+](=O)[O-])c1	3.35 µM
CC(=O)O[C@H]1CCC2C3CC[C@H]4[C@@H](O)[C@H](O)CC[C@]4(C)C3CC[C@@]21C (some centres undefined)	> 70 µM (inactive)
Cc1ccc(-c2nc(NC(=O)c3nn(C)cc3[N+](=O)[O-])sc2C)cc1C	2.25 µM
Cc1cc(Nc2cccc(Cl)c2)nc(NCc2ccccc2)n1	1.64 µM
CC1CCC/C=C/C(=O)c2c(O)cc(O)cc2CC(=O)O1 (centres undefined)	4.12 µM
O=C(Cc1ccc(Cl)cc1)Nc1ccc(N2CCN(C(=O)c3ccco3)CC2)cc1	> 70 µM (inactive)
CCSc1nnc(NC(=O)c2nc(S(=O)(=O)Cc3ccc(F)cc3)ncc2Cl)s1	4.96 µM
CCCN1C(=O)S/C(=C\c2ccc(N3CCOCC3)o2)C1=O	6.37 µM
Cc1cc(C)c(C(N)=O)c(SCC(=O)c2cc(C)n(-c3cc(C)on3)c2C)n1	0.942 µM
CCOc1ccc(OCC(=O)N(CCC2=CCCCC2)c2c(N)n(Cc3ccccc3)c(=O)[nH]c2=O)cc1	8.66 µM
Fc1ccc(/C=C2\CCCC3=C2Nc2ncnn2C3c2ccc(F)cc2)cc1 (centres undefined)	8.47 µM
COc1ccc(-n2c(C)cc(C(=O)CSc3nnc(-c4cccs4)o3)c2C)cc1	5.03 µM
COc1ccccc1-c1cc(C(F)(F)F)nc(S(=O)(=O)CCCC(=O)N2CCOCC2)n1	3.02 µM
CCCCCn1c(N2CCN(c3cccc(Cl)c3)CC2)nc2c1c(=O)[nH]c(=O)n2C	21.8 µM
COC(=O)c1cc2c(n1S(=O)(=O)c1ccc(C)cc1)C(=O)C(=O)c1[nH]cc(C(=O)OCc3ccccc3)c1-2	1.2 µM
CCC(C)C(NC(=O)CCCNC(=O)CCC(=O)OC1O[C@H]2OC3(C)CC[C@H]4[C@H](C)CCC(C1C)C24OO3)C(=O)O (some centres undefined)	1.02 µM
COC(=O)C1=C(c2ccc(OCc3ccccc3)cc2)C[C@@H]2CC[C@H]1N2C(=O)NCCCCc1ccccc1	2.8 µM
